Measured values reported in patent publication US7074789B2, “Kinase inhibitors” (Amgen Inc., priority 1999, dated 2006).
pIC50: −log10 of the molar value.

What was measured:
Assay type in all cases: biochemical
FGFR1 = target: T1, FGFR1 (Homo sapiens, UniProt P11362); assay: Kinase inhibition assay (33P transfer), FGFR1; details: read-out: FGFR1-1
T1 construct: Kinases are expressed as either kinase domains or full length constructs; made in house

PDGFRB = target: T2, PDGFRB (Homo sapiens, UniProt P09619); assay: Kinase inhibition assay (33P transfer), PDGFRB; details: read-out: PDGFRB-1
T2 construct: Kinases are expressed as either kinase domains or full length constructs; made in house
T2 sequence (P09619 33-1106, species assumed): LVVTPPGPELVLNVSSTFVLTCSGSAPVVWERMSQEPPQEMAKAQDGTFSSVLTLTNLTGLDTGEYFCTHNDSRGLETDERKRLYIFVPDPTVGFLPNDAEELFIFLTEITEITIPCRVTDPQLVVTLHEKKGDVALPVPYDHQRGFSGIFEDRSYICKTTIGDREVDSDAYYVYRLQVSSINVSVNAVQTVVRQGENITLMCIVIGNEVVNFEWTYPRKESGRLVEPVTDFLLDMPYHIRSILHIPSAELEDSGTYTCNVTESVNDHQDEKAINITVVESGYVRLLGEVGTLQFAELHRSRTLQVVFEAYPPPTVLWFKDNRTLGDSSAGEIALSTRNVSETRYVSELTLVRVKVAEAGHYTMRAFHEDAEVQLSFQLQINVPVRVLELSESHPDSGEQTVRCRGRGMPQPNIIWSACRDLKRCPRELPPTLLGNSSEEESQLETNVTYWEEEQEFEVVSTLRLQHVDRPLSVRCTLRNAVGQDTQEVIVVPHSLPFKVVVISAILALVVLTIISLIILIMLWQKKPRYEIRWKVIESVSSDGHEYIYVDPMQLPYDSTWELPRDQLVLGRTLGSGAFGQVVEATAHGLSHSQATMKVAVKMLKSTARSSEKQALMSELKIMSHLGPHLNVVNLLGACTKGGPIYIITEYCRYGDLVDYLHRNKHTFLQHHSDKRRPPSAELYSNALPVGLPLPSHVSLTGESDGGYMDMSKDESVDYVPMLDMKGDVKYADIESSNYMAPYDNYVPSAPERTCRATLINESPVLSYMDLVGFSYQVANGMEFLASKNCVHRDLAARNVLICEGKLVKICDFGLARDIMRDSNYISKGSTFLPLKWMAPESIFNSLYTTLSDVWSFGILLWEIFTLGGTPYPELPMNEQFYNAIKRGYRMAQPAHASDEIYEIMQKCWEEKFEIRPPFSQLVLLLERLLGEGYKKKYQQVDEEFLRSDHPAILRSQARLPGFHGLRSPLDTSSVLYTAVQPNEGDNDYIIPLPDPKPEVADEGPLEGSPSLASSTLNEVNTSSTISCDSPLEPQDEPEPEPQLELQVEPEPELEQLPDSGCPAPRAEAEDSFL

Tek = target: T3, Tek (Homo sapiens, UniProt Q02763); assay: Kinase inhibition assay (33P transfer), Tek; details: read-out: Tek-1
T3 construct: Kinases are expressed as either kinase domains or full length constructs; made in house
T3 sequence (Q02763 23-1124, species assumed): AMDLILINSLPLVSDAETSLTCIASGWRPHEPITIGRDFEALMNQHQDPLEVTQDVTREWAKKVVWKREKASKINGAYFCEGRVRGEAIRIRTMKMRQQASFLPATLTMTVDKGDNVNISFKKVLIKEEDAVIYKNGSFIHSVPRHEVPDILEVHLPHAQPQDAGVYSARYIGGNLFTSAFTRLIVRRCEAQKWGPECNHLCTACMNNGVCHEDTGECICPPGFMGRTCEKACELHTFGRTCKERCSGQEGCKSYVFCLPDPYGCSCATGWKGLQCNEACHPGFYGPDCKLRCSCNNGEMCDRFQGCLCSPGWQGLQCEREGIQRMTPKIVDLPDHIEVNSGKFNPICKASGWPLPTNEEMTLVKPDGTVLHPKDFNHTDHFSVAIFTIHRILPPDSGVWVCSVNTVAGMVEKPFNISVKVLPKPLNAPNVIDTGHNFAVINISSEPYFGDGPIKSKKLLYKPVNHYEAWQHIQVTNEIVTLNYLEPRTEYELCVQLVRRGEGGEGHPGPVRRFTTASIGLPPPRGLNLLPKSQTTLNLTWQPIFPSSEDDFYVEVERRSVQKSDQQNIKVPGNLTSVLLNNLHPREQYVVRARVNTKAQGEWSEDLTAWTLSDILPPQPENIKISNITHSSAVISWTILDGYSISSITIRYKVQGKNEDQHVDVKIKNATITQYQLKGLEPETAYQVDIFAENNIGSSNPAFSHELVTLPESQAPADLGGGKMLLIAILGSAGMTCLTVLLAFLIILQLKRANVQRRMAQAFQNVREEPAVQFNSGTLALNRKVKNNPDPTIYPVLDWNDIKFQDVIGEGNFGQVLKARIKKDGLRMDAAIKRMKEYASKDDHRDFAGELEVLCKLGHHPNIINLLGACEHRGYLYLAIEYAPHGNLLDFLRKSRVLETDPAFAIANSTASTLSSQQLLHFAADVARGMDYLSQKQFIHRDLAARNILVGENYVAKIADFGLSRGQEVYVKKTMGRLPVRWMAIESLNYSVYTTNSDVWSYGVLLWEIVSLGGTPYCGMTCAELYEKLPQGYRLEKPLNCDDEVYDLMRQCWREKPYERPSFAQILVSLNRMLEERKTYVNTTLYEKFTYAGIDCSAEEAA
Method in brief: (§1)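 Radiometric format: recombinant tagged kinase (catalytic domain or whole protein, sometimes combined with regulatory polypeptides) phosphorylates immobilised poly(Glu,Tyr) 4:1 or poly(Arg,Ser) 3:1 using [33P]ATP. Wells are washed in 0.5% phosphoric acid, then counted. IC50 is taken where substrate labelling falls by half.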

ErbB4 = target: T4, ErbB4 (Homo sapiens, UniProt Q15303); assay: Kinase inhibition assay (33P transfer), ErbB4; details: read-out: ErbB4-1
T4 construct: Kinases are expressed as either kinase domains or full length constructs; made in house
T4 sequence (Q15303 26-1308, species assumed): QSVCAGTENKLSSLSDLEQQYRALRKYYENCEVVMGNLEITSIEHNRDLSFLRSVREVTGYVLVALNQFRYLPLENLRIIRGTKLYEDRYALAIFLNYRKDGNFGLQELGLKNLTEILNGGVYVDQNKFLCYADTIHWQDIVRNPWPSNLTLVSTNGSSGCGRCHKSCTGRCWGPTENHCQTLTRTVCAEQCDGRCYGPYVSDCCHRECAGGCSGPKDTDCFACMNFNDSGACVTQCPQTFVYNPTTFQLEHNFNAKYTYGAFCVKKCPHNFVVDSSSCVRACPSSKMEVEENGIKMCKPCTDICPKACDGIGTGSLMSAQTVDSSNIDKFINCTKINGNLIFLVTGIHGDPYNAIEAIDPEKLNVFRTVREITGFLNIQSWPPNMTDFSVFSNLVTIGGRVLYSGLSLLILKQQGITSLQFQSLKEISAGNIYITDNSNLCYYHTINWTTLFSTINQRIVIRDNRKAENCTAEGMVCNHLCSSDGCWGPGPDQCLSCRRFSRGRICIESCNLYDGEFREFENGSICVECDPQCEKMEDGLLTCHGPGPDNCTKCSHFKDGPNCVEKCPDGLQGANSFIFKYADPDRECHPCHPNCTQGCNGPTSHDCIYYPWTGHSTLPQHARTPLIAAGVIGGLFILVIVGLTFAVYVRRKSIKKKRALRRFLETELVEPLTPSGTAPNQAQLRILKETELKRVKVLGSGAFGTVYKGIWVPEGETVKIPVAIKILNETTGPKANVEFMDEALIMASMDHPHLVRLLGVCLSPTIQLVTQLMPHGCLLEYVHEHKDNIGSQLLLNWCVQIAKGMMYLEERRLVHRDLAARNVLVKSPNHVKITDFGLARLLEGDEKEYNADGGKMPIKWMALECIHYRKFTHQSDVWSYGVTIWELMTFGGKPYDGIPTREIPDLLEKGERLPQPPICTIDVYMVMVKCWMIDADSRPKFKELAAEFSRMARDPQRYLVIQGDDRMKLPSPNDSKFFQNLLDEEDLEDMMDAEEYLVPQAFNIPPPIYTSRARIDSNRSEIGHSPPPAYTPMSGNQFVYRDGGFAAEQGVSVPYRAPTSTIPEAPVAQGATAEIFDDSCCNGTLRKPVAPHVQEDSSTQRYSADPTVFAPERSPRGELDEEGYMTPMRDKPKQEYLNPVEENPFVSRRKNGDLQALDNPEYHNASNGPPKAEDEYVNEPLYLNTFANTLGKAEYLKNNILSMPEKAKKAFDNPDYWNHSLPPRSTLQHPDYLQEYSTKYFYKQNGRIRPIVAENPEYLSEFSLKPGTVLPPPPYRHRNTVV

Itk = target: T5, Itk (Homo sapiens, UniProt Q08881); assay: Kinase inhibition assay (33P transfer), Itk; details: Table 3; read-out: Itk-1
T5 construct: Kinases are expressed as either kinase domains or full length constructs; made in house
T5 sequence (Q08881 1-620): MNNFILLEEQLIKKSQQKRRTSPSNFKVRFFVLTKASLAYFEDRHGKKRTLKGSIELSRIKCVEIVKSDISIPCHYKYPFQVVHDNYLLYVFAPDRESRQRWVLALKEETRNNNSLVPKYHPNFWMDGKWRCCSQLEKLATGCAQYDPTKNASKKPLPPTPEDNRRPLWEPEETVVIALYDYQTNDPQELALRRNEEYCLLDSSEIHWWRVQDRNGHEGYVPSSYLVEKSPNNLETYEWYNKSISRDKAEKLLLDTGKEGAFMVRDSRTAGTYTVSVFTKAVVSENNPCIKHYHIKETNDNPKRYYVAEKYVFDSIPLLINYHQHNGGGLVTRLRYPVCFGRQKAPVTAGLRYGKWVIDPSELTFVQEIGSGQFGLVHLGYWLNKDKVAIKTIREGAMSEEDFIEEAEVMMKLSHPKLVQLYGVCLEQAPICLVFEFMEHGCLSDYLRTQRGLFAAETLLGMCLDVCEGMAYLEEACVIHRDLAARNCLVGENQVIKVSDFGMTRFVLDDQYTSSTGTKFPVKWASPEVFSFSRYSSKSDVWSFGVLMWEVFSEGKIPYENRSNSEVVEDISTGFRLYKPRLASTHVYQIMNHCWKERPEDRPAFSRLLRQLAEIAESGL
Method in brief: as §1

c-Met = target: T6, c-Met (Homo sapiens, UniProt P08581); assay: Kinase inhibition assay (33P transfer), c-Met; details: Table 2, kinase inhibition class; read-out: Met-1
T6 construct: Kinases are expressed as either kinase domains or full length constructs; made in house
T6 sequence (P08581 25-1390): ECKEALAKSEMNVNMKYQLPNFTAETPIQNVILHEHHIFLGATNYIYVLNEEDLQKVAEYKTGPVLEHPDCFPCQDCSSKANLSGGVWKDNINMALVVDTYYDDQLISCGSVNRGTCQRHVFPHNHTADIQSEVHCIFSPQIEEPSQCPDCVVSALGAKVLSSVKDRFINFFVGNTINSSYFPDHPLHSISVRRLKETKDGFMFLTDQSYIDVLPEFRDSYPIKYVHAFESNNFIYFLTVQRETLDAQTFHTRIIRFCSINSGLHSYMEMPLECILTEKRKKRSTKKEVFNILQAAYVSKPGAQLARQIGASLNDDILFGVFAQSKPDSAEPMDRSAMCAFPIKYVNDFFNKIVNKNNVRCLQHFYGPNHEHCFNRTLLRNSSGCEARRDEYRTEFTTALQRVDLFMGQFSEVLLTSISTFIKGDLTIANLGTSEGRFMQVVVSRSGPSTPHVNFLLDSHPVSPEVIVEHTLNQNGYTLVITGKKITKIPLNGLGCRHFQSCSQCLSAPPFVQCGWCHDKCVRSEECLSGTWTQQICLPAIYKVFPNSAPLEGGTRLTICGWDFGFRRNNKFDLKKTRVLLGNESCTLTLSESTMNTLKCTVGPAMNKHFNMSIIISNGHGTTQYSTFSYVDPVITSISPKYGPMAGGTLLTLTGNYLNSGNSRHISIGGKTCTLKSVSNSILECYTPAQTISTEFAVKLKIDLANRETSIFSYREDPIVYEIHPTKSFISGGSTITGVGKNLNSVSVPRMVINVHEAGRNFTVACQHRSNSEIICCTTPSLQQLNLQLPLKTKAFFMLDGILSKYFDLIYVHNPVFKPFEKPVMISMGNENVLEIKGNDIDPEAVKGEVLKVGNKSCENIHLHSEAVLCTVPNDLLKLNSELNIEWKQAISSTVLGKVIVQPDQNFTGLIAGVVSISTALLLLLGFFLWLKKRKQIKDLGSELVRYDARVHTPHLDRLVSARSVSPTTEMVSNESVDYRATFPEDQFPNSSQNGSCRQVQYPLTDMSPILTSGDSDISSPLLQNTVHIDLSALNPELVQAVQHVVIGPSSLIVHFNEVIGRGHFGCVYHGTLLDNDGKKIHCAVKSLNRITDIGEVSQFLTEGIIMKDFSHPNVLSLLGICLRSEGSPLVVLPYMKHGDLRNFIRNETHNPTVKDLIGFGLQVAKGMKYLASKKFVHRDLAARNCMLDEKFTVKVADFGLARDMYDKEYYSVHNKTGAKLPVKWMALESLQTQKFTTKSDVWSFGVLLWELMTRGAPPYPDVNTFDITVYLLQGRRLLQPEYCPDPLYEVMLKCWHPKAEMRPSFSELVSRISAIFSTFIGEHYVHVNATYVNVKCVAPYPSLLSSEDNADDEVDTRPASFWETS
Method in brief: as §1

EPHB4 = target: T7, EPHB4 (Homo sapiens, UniProt P54760); assay: Kinase inhibition assay (33P transfer), EPHB4; details: read-out: EPHB4-1
T7 construct: Kinases are expressed as either kinase domains or full length constructs; made in house
T7 sequence (P54760 16-987): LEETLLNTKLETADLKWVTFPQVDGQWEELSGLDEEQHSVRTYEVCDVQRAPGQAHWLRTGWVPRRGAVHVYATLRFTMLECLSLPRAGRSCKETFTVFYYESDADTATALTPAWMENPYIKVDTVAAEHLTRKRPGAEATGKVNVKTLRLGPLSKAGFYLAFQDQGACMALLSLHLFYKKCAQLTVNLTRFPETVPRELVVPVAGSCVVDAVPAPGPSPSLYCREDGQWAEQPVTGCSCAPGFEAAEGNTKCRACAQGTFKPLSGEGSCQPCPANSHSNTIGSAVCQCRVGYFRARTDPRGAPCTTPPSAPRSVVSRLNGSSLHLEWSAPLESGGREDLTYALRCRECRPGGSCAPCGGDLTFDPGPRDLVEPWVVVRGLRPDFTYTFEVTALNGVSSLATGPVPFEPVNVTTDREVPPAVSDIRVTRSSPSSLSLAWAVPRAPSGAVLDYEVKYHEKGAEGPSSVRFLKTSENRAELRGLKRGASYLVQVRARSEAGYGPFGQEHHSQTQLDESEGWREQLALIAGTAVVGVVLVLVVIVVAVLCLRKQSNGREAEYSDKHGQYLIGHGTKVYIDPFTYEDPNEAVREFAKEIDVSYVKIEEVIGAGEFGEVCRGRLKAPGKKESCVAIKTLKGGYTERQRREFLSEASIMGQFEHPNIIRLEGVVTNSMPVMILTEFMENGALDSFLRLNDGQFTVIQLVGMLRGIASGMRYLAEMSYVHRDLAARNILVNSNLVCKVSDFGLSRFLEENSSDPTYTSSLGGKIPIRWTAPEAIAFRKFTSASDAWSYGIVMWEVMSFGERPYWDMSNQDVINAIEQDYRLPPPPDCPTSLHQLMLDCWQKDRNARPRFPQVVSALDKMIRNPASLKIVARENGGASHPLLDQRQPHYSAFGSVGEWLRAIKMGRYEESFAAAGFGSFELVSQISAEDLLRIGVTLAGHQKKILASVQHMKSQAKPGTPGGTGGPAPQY

IGFR-1 = target: T8, IGFR-1 (Homo sapiens, UniProt P08069); assay: Kinase inhibition assay (33P transfer), IGFR-1; details: Table 2, kinase inhibition class
T8 construct: Kinases are expressed as either kinase domains or full length constructs; made in house

Flt-1 = target: T9, Flt-1 (Homo sapiens, UniProt P17948); assay: Kinase inhibition assay (33P transfer), Flt-1
T9 construct: Kinases are expressed as either kinase domains or full length constructs; made in house
Method in brief: as §1

| Structure (SMILES) | pIC50 (FGFR1) | pIC50 (PDGFRB) | pIC50 (Tek) | pIC50 (ErbB4) | pIC50 (Itk) | pIC50 (c-Met) | pIC50 (EPHB4) | pIC50 (IGFR-1) | pIC50 (Flt-1) |
| --- | --- | --- | --- | --- | --- | --- | --- | --- | --- |
| COc1cc(Nc2ncnc(N(CC(=O)O)c3ccc4c(c3)OCO4)n2)cc(OC)c1OC [Compound 319] | < 5.01 | < 5.01 | < 5.01 | < 5.01 | < 5.01 | < 5.01 | < 5.01 | < 5.01 | < 5.01 |
| COCCOc1cc(Nc2ncnc(Nc3ccc(C)c(O)c3)n2)ccc1OC [Compound 127] | 5.22 to 6.00 | > 6.00 | < 4.95 | 5.22 to 6.00 | < 4.95 | < 4.95 | 4.95 to 5.06 | 5.22 to 6.00 | > 6.00 |
| COc1cc2ccn(-c3ncnc(Nc4cc(OC)c(OC)c(OC)c4)n3)c2cc1OC [Compound 239] | < 4.99 | < 4.99 | < 4.99 | < 4.99 | < 4.99 | < 4.99 | < 4.99 | < 4.99 | < 4.99 |
| COc1cc(Nc2ncnc(Nc3ccc4c(ccn4Cc4ccccc4)c3)n2)cc(OC)c1OC [Compound 178] | 5.03 to 5.14 | 5.14 to 5.30 | 5.14 to 5.30 | < 5.03 | < 5.03 | 5.14 to 5.30 | 5.14 to 5.30 | 5.30 to 6.08 | 5.03 to 5.14 |
| COc1ccc2c(c1)c(CCNC(C)=O)cn2-c1ncnc(Nc2cc(OC)c(OC)c(OC)c2)n1 [Compound 339] | < 5.04 | > 6.09 | < 5.04 | < 5.04 | < 5.04 | < 5.04 | < 5.04 | < 5.04 | < 5.04 |
| COCCOc1ccc(Nc2ncnc(Nc3ccc4[nH]ccc4c3)n2)cc1OCCOC [Compound 321] | < 5.00 | 5.27 to 6.05 | < 5.00 | < 5.00 | < 5.00 | < 5.00 | < 5.00 | 5.11 to 5.27 | < 5.00 |
| COc1cc(Nc2ncnc(N3CCc4cc([N+](=O)[O-])ccc43)n2)cc(OC)c1OC [Compound 187] | < 4.97 | < 4.97 | < 4.97 | 5.08 to 5.25 | < 4.97 | < 4.97 | < 4.97 | < 4.97 | < 4.97 |
| COc1ccc(Nc2ncnc(N(C/C=C/c3ccccc3)c3ccc(Cl)cc3)n2)cc1OC [Compound 974] | 5.13 to 5.30 | < 5.02 | < 5.02 | < 5.02 | < 5.02 | < 5.02 | < 5.02 | < 5.02 | < 5.02 |
| COCCOc1ccc(Nc2ncnc(Nc3ccc(C)c(O)c3)n2)cc1OC [Compound 123] | 5.22 to 6.00 | > 6.00 | 4.95 to 5.06 | 5.22 to 6.00 | 5.06 to 5.22 | < 4.95 | < 4.95 | 5.22 to 6.00 | > 6.00 |

Second part, the molecule after the results:

| pIC50 (FGFR1) | pIC50 (PDGFRB) | pIC50 (Tek) | pIC50 (ErbB4) | pIC50 (Itk) | pIC50 (c-Met) | pIC50 (EPHB4) | pIC50 (IGFR-1) | pIC50 (Flt-1) | Structure (SMILES) |
| --- | --- | --- | --- | --- | --- | --- | --- | --- | --- |
| 5.26 to 6.04 | > 6.04 | < 4.99 | 4.99 to 5.10 | 5.10 to 5.26 | < 4.99 | < 4.99 | 5.26 to 6.04 | > 6.04 | COCCOc1ccc(Nc2ncnc(Nc3ccc(C)c(O)c3)n2)cc1OCCOC [Compound 125] |
| 5.23 to 6.01 | > 6.01 | < 4.96 | < 4.96 | < 4.96 | 5.06 to 5.23 | 5.23 to 6.01 | > 6.01 | 5.23 to 6.01 | COc1cc(Nc2ncnc(Nc3ccc(Cl)cc3F)n2)cc(OC)c1OC [Compound 306] |
| 5.23 to 6.01 | < 4.96 | < 4.96 | < 4.96 | 5.07 to 5.23 | < 4.96 | < 4.96 | > 6.01 | < 4.96 | COCCOc1ccc(Nc2ncnc(-n3c(N)nc4ccccc43)n2)cc1OC [Compound 287] |
| > 5.96 | 5.18 to 5.96 | < 4.91 | 5.18 to 5.96 | 5.18 to 5.96 | 5.18 to 5.96 | 5.18 to 5.96 | 5.18 to 5.96 | > 5.96 | NC(=O)c1cccc(Nc2ncnc(Nc3cc(-c4ccco4)n[nH]3)n2)c1 [Compound 342] |
| > 5.99 | > 5.99 | 4.94 to 5.05 | < 4.94 | < 4.94 | 5.21 to 5.99 | < 4.94 | < 4.94 | > 5.99 | COc1cc(Nc2ncnc(N3CCCc4ccccc43)n2)cc(OC)c1OC [Compound 609] |
| 5.28 to 6.06 | > 6.06 | < 5.01 | 5.28 to 6.06 | < 5.01 | 5.01 to 5.12 | 5.28 to 6.06 | 5.12 to 5.28 | 5.28 to 6.06 | COc1cc(Nc2ncnc(Nc3ccc(C)c(NS(C)(=O)=O)c3)n2)cc(OC)c1OC [Compound 305] |
